Reference: patent US20240400536A1, “IDEBENONE DERIVATIVES AND THEIR USE IN TREATING PLANTS” (MITORX THERAPEUTICS LIMITED, priority 2021, published 2024)

Assays:
b.End3 cells [1] = assay: Hyperglycaemia-induced mitochondrial dysfunction: mitochondrial superoxide (ROS) production, Mitosox Red; type: cell-based; conditions: 10 days hyperglycaemia, compound added on day 8 for two days
Procedure: In order to induce hyperglycemia in b.End3 cells, a literature reported protocol Lorenzi et al 1985; Qu et al 2014] was followed. After trypsinisation, cells were diluted with supplemented DMEM (approximately 2 ml per flask) and consequently, cells from 3 or 4 different flasks were transferred in a 15 ml sterile conical centrifuge tube and centrifuged for 5 minutes, in order to separate the cells from the medium. Following that, the supernatant medium was removed and the cells were gently re-suspended and mixed with approximately 4 ml of fresh supplemented DMEM. 20 μl of this solution was added to 40 μl of trypan blue and 10 μl of the final solution was loaded onto a cell counting slide dual-chamber. Trypan blue allows to distinguish between live and dead cells. Indeed it is impermeable in live cells, while it is absorbed by dead cells. The number of cells per ml was measured using an automated cell counter. […] Cells were cultured for 8 days since, in previous studies, it was determined that this is the minimum amount of time required to induce extensive mitochondrial dysfunction, such as excessive oxidant production and mitochondrial membrane hyperpolarisation Lorenzi et al 1985; Qu et al 2014]
On day 8, 10 μl/well (1/20 dilution factor) of a solution of an H2S donor or of a control compound or a PBS vehicle solution (with calcium and magnesium salts and 10% DMSO) was administered to cells. […] The cells were incubated for a further two days in the presence of the compound and after ten days of hyperglycaemia exposure, the amount of mitochondrial oxidant and mitochondrial membrane hyperpolarisation were determined. […]
On day 0, cells (20,000 cell/ml) were plated in a 96-well plate. […] On day 10, mitochondrial dysfunction were determined Lorenzi et al 1985; Qu et al 2014]. […]

b.End3 cells [2] = assay: Hyperglycaemia-induced mitochondrial dysfunction: mitochondrial membrane potential restore; type: cell-based; conditions: compound added on day 8 for two days
Procedure: Moreover, in cardiovascular diseases such as hypertension and diabetes a loss of endothelial function and cell death were observed [Poredos et al, 2021].
In order to induce hyperglycemia in b.End3 cells, a literature reported protocol Lorenzi et al 1985; Qu et al 2014] was followed. After trypsinisation, cells were diluted with supplemented DMEM (approximately 2 ml per flask) and consequently, cells from 3 or 4 different flasks were transferred in a 15 ml sterile conical centrifuge tube and centrifuged for 5 minutes, in order to separate the cells from the medium. Following that, the supernatant medium was removed and the cells were gently re-suspended and mixed with approximately 4 ml of fresh supplemented DMEM. 20 μl of this solution was added to 40 μl of trypan blue and 10 μl of the final solution was loaded onto a cell counting slide dual-chamber. Trypan blue allows to distinguish between live and dead cells. Indeed it is impermeable in live cells, while it is absorbed by dead cells. The number of cells per ml was measured using an automated cell counter. Commonly, the value found was […] and consequently, the cell solution was diluted, in order to obtain a concentration of 20,000 cells/well in the minimum volume necessary to fill a 96-well plate (200 μl/well, ≈13 ml for one plate, since the two external columns and rows were loaded with cell-free medium because they are susceptible to evaporation thus, the cell medium in these wells prevented the external cell-containing wells from evaporating). Cells were cultured overnight in a humidified incubator, in order to allow them to attach to the plate surface. Afterwards, the medium was removed (a part of the plate was kept with normal glucose DMEM as a […]) and supplemented high-glucose DMEM was added. Cells were cultured for 8 days since, in previous studies, it was determined that this is the minimum amount of time required to induce extensive mitochondrial dysfunction, such as excessive oxidant production and mitochondrial membrane hyperpolarisation Lorenzi et al 1985; Qu et al 2014]
On day 8, 10 μl/well (1/20 dilution factor) of a solution of an H2S donor or of a control compound or a PBS vehicle solution (with calcium and magnesium salts and 10% DMSO) was administered to cells. The final concentration of DMSO in cells was 0.5%: higher DMSO doses may be toxic for the cells. The cells were incubated for a further two days in the presence of the compound and after ten days of hyperglycaemia exposure, the amount of mitochondrial oxidant and mitochondrial membrane hyperpolarisation were determined. Noticeably in this procedure, in order to evaluate the cytoprotective activity of the novel compounds, the drugs were added only after the mitochondrial dysfunction in cells had already occurred. The protocol described is summarised in the scheme below:
On day 0, cells (20,000 cell/ml) were plated in a 96-well plate. Cells were cultured overnight at 37° C. On day 1, supplemented DMEM was removed and high-glucose supplemented DMEM was added. On day 8, an H2S donor compound (Examples 1-7), a control compound or altematively a vehicle solution was added to cells. On day 10, mitochondrial dysfunction were determined Lorenzi et al 1985; Qu et al 2014].

Toxicity (TC50) = type: cell-based; conditions: mouse, b.End3 cells
b.End3 cells [3] = assay: Toxicity (TC50); type: cell-based
[4] = cited from earlier work
endothelial cells = conditions: cited from earlier work
C. elegans = assay: Worm screening: mitochondrial network imaging in ageing C. elegans; type: in vivo; conditions: for reduction of networked mitochondria caused by aging: FIG. 2; for damage caused to mitochondrial network in aging: FIG. 3
Procedure: C. elegans strains were cultured at 20° C. on Petri dishes containing nematode growth medium (NGM) agar and a lawn of Escherichia coli OP50, unless stated otherwise. Animals for the study were age-synchronized by gravity synchronization from the L1 stage and allowed to grow to the desired day of adulthood. The C. elegans strains used in this study were Bristol strain N2 (WT) provided by the Caenorhabditis Genetics Center.
Mitochondrial imaging was used in day 1 adults, with or without treatment, to examine the mitochondrial network. Worms were cultured on test compounds as described. Approximately 20 day 1 adults were picked into 20 μL of M9 buffer on a microscope slide with a coverslip applied. Worms were imaged at 40× magnification using a Nikon Eclipse 50i microscope. The protocol used was as described by Oh and Kim. Briefly animals were assessed at day 4 and day 8 of adulthood, where the number of dead muscle cells was determined by quantifying the number of muscle cells that had lost their distinct circular nuclear GFP signal. Approximately 30 animals were picked into 20 μL of M9 buffer on a microscope slide with a coverslip applied. Worms were imaged at 10× magnification by using a Nikon Eclipse 50i microscope.

[5] = system: senescent primary human lung fibroblasts; assay: Cellular bioenergetics (Seahorse OCR) in senescent primary human lung fibroblasts; type: cell-based; conditions: FIG. 4; compounds 0-300 nM; compared to the control (SIP cells without compound)
Procedure: Human primary lung fibroblasts were isolated from healthy volunteers and cultured in DMEM supplemented with 10% fetal calf serum and 1% pen/strep and […] L-glutamine, at 37° C., 5% CO2. To induce senescence, cells were seeded at a density of 50,000 cells per well in 250 μl of cell culture media onto Seahorse V7 plates and treated daily with fresh cell culture media containing […] H2O2 for 5 days, cells were then cultured with normal medium for a further 9 days. Senescence was confirmed by microscopy and staining for the senescence marker, senescence-associated-β-galactosidase (SA-βgal; Cell Signalling kit #9860). Cells were then treated with compounds (0-300 nM) for a further 24 h (controls are *SIP cells without compounds) and after this time, cellular bioenergetics determined using a Seahorse XFe24 extracellular flux analyser performed as described below. * SIP-senescence-induced phenotype
For the mitochondrial stress and glycolytic stress tests (Agilent, UK)Seahorse XFe24 sensor cartridges were hydrated with Seahorse XF calibrant solution and maintained at 37° C. in a non-CO2 incubator overnight. […] After incubation, plates were loaded onto Seahorse XFe24 Analyser and basal oxygen consumption rate (OCR) measured for 3 cycles. […] Extracellular acidification rate (ECAR) and Oxygen consumption rate (OCR) were measured for 3 baseline cycles and injection strategy initiated. […]

Row | Compound | IC25 (Mitochondrial ROS level restore) (b.End3 cells [1]) [nM] | IC50 (b.End3 cells [2]; BEND3, 10 days hyperglycaemia) [nM] | CC50 (Toxicity (TC50)) [µM] | reduction of networked mitochondria caused by aging (C. elegans) | damage caused to mitochondrial network in aging (C. elegans) | also measured
1 | COC1=C(OC)C(=O)C(CCCCCCCCCCOC(=O)COc2ccc(-c3cc(=S)ss3)cc2)=C(C)C1=O [Example 1, 10-(4,5-dimethoxy-2-methyl-3,6-dioxocyclohexa-1,4-dien-1-yl)decyl 2-[4-(3-sulfanylidene-3H-1,2-dithiol-5-yl)phenoxy]acetate] | 6.5 | 0.4 | 147 |  |  | 
2 | O=C(CCCCCCCCC[P+](c1ccccc1)(c1ccccc1)c1ccccc1)Oc1ccc(-c2cc(=S)ss2)cc1.[Br-] [AP39] | 10 |  |  |  |  | IC50 (b.End3 cells [2]; 10 days hyperglycaemia): 4 nM; CC50 (b.End3 cells [3]): 8 µM; aqueous solubility [4]: poor; ATP production (endothelial cells; endothelial cells): increase; protein persulfidation (endothelial cells; inside the mitochondria): increase; intracellular levels of H2S (endothelial cells; mainly inside the mitochondria, concentration-dependent): increase
3 | COC1=C(OC)C(=O)C(CCCCCCCCCC(=O)Oc2ccc(-c3cc(=O)ss3)cc2)=C(C)C1=O [Example 3, 4-(3-oxo-3H-1,2-dithiol-5-yl)phenyl 10-(4,5-dimethoxy-2-methyl-3,6-dioxocyclohexa-1,4-dien-1-yl)decanonate] |  | 5 | 76 |  |  | 
4 | Oc1ccc(-c2cc(=S)ss2)cc1 [ADTOH, 5-(4-hydroxyphenyl) -3H-1,2-dithiole-3-thione] |  |  |  | not | not | 
5 | COC1=C(OC)C(=O)C(CCCCCCCCCCO)=C(C)C1=O [idebenone] |  |  |  | not | not | 
6 | CC1=C(CCCCCCCCCC(=O)Nc2ccc(C(N)=S)cc2)C(=O)c2ccccc2C1=O [Example 17, N-(4-carbamothioylphenyl)-10-(3-methyl-1,4-dioxo-1,4-dihydronaphthalen-2-yl)decanamide] |  |  |  |  |  | dysfunction of the mitochondria (loss of OCR) in senescent cells [5]: reversed
7 | COC1=C(OC)C(=O)C(CCCCCCCCCC(=O)Oc2ccc(C(N)=S)cc2)=C(C)C1=O [Example 4, 4-carbamothioylphenyl 10-(4,5-dimethoxy-2-methyl-3,6-dioxocyclohexa-1,4-dien-1-yl)decanoate] |  | 1 | 100 |  |  | 
8 | 4-(3-sulfanylidene-3H-1,2- dithiol-5-yl)phenyl) 10-(4,5-dimethoxy-2- methyl-2,6-dioxocyclohexa- 1,4-dien-1-yl)decanoate [Example 2] | 10 |  |  | preserved | can be inhibited | IC50 (b.End3 cells [2]; 10 days hyperglycaemia): 6 nM; CC50 (b.End3 cells [3]): 130 µM; fragmentation of the mitochondrial network caused by ageing (C. elegans; FIG. 1): inhibited
